Experiments:
fibroid = details: Murphy 1995, Zeng 1998; cited from earlier work
uterine fibroids = assay: Randomized, placebo-controlled, double blinded, parallel trial: change in total fibroid volume by MR imaging; assay type: in vivo, human (women); details: for reduction in fibroid volume: three months (90 days), placebo +6%
Excerpt: (§1) Healthy women aged 33-50 years with symptomatic fibroids and regular menstrual cycles were considered for enrollment.
(§2) Inclusion criteria included regular cycles and contraceptive use, and symptomatic fibroids as defined by ACOG practice bulletin 1994: • Excessive uterine bleeding evidenced by either of the following: profuse bleeding with flooding or clots or repetitive periods lasting for more than 8 days; or anemia due to acute or chronic blood loss; • or pelvic discomfort caused by leiomyomata, either acute or severe or chronic lower abdominal or low back pressure or bladder pressure with urinary frequency not due to urinary tract infection.
(§3) Exclusion criteria included pregnancy, hemoglobin <10 g/dL, current hormone therapy, rapidly enlarging uterus and FSH […]. MR images were obtained to record fibroid number, location and volume, before starting study drug and within 2 weeks of surgery. Women took ulipristal at an oral dose of 10 or 20 mg, or placebo (PLC: microcrystalline cellulose) for 3 cycles, or 90 days if they became anovulatory. The percent change in total fibroid volume was compared, Wilcoxon rank sum test and t-test were used as needed.

[1] = test system: menstrual bleeding in women with symptomatic fibroids; assay: Randomized placebo-controlled trial: menstrual function / bleeding; assay type: in vivo, human (women); details: for menstrual bleeding: 3 cycles/90 days, placebo had monthly menses; for menses compared to placebo: 10 or 20 mg daily, 90 days
Excerpt: as §1, §2, §3
Additional analyses evaluated treatment-related differences in menstrual function.

fibroid tissue [2] = assay: Gene expression profiling (Affymetrix microarray, RT-PCR) of fibroid tissue after 90 days treatment; assay type: in vivo, human (women)
Experimental: (§4) Pre-menopausal women with symptomatic fibroids received ulipristal (10 or 20 mg; n=12) or placebo (PL) (n=6) in a blinded, randomized allocation, for 90 days before hysterectomy. No other hormonal therapy was given. Fibroid tissue and adjacent myometrium were collected at surgery and processed in RNAlater (for RNA isolation). Fibroid tissue also was processed for paraffin embedding (for immunohistochemisty (IHC) and TUNEL assay). Total RNA was used for Affymetrix microarray with the U133 Plus 2.0 human chip. Differential transcription of genes of interest was confirmed by RT-PCR analysis. The TUNEL assay and IHC for Ki67 and phosphorylaied histone 3 (phospho H3) were applied to paraffin embedded tissue sections, and the percentage of positive stained cells was noted to assess apoptosis and proliferation. RT-PCR results and proliferation assays were analyzed using two-tailed student t-test; Kruskal-Wallis test was used to assess TUNEL assay results; P<0.05 was considered significant.

fibroid tissue [3] = assay: TUNEL assay and IHC for Ki67 and phospho H3 on fibroid tissue sections (apoptosis and proliferation); assay type: in vivo, human (women); details: compared to placebo
Experimental: as §4

[4] = test system: benign metastatic leiomyoma; assay: Compassionate treatment of benign metastatic leiomyoma (single patient); assay type: in vivo, human; details: daily oral dose of 10-20 mg
Experimental: A person with known benign metastatic leiomyoma status post abdominal surgery that confirmed multiple nodules was treated with ulipristal (daily oral dose of 10-20 mg), in a compassionate protocol. […] More importantly, their pulmonary function tests improved from 50% of predicted to 103% of predicted after 3 months of treatment. They felt better.

CC#C[C@]1(O)CC[C@H]2[C@@H]3CCC4=CC(=O)CCC4=C3[C@@H](c3ccc(N(C)C)cc3)C[C@@]21C [mifepristone]
fibroid size (fibroid): reduced fibroid size in a dose-dependent manner

17α-acetoxy-11β-[4N,N-dimethylamino-phenyl) -19-norpregna- 4,9-diene-3,20-dione [ulipristal]
change in total fibroid volume (uterine fibroids; 10 mg and 20 mg groups combined, three months, placebo 6%, p=0.01): -29% | reduction in fibroid volume (uterine fibroids; 10 mg oral daily): 36% | reduction in fibroid volume (uterine fibroids; 20 mg oral daily): 21% | menstrual bleeding ([1]; 10 mg oral daily): single episode of menstrual bleeding | menstrual bleeding ([1]; 20 mg oral daily): no woman receiving 20 mg had any bleeding | menses compared to placebo [1]: induced amenorrhea | menses compared to placebo ([1]; listed as CDB-2914): significant reduction in menses | genes expressed differentially between ulipristal and placebo (fibroid tissue [2]; microarray, 2 fold change cut-off and P<0.02): 314 genes | Fold change of RT-PCR gene product, NDP (fibroid tissue [2]; ulipristal (10 or 20 mg, 90 days) treated compared to placebo, P 0.001): −5.6 | Fold change of RT-PCR gene product, PLP1 (fibroid tissue [2]; ulipristal (10 or 20 mg, 90 days) treated compared to placebo, P 0.006): 9.2 | Fold change of RT-PCR gene product, Wnt5A (fibroid tissue [2]; ulipristal (10 or 20 mg, 90 days) treated compared to placebo, P 0.008): −2.4 | Fold change of RT-PCR gene product, ZAK (fibroid tissue [2]; ulipristal (10 or 20 mg, 90 days) treated compared to placebo, P 0.014): 1.5 | Fold change of RT-PCR gene product, FAIM (fibroid tissue [2]; ulipristal (10 or 20 mg, 90 days) treated compared to placebo, P 0.017): −1.8 | Fold change of RT-PCR gene product, Clu (fibroid tissue [2]; ulipristal (10 or 20 mg, 90 days) treated compared to placebo, P 0.019): −2.1 | Fold change of RT-PCR gene product, Bcl2 (fibroid tissue [2]; ulipristal (10 or 20 mg, 90 days) treated compared to placebo, P 0.224): −1.5 | measures of proliferation (fibroid tissue [3]; IHC Ki67 and phospho H3, fibroids after 90 days 10 or 20 mg): decreased measures of proliferation | measures of apoptosis (fibroid tissue [3]; TUNEL assay, fibroids after 90 days 10 or 20 mg): increased measures of apoptosis | liver nodule [4]: decrease in a liver nodule | right pleural effusion [4]: resolution of a right pleural effusion | pulmonary function tests ([4]; after 3 months of treatment, improved from 50% of predicted): 103 % of predicted | uterine fibroids ([4]; two uterine fibroids): some decrease in two uterine fibroids
